# Read-outs that look alike come from different tables or passages of the source. Numbered stars: 1 amine (or outer) side, 2 acyl side, 3 side chain; on linkers, the order of the positions; unused ones are H or OH. Bridge positions count the residues as written; N and C are the ends. Square brackets hold non-standard residues; d marks the D form. Peptide text beside a SMILES is read from it. * marks the point of attachment. DOTA = O=C(O)CN1CCN(CC(=O)O)CCN(CC(=O)*)CCN(CC(=O)O)CC1; TATA = O=C(CC[*:1])N1CN(C(=O)CC[*:2])CN(C(=O)CC[*:3])C1; X1 = O=C(O)CN1CCN(CC(=O)O)CCN([C@H](CCC(=O)*)C(=O)O)CC1; 1Nal = N[C@@H](Cc1cccc2ccccc12)C(=O)O; 2Nal = N[C@@H](Cc1ccc2ccccc2c1)C(=O)O; Hyp = O=C(O)[C@@H]1C[C@@H](O)CN1; hArg = N=C(N)NCCCC[C@H](N)C(=O)O; Met(O) = CS(=O)CC[C@H](N)C(=O)O; SeMet = C[Se]CC[C@H](N)C(=O)O; Nle = CCCC[C@H](N)C(=O)O
# Legend:
# [1] = target: T1, immobilized human nectin-4 (Homo sapiens, UniProt Q96NY8); assay: SPR analysis of binding kinetics; settings: ±SEM
# T1 construct: close to the value determined for the complete extracellular domain of nectin-4 (0.94 nM); purchased R&D Systems 2659-N4
# T1 sequence (Q96NY8 32-349 limits assumed): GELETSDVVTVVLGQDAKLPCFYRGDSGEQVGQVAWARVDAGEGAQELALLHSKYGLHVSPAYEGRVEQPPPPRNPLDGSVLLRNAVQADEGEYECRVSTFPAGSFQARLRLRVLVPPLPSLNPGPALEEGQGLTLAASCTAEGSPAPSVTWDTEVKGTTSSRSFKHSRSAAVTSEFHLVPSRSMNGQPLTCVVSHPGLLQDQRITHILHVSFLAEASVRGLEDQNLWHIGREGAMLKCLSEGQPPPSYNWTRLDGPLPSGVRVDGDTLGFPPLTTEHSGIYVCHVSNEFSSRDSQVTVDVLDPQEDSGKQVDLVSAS
# Method: For this purpose, recombinant human nectin-4 was covalently immobilized on a CM5 sensor chip by EDC/NHS coupling. For analyses, the buffer composition (HBS-P+, pH 7.4) was similar to that of the FA assay; however, DMSO was completely omitted (1% DMSO for the FA assay).
# The SPR analyses were carried out on a Biacore T200 (GE Healthcare, Chicago, IL, USA) at 25 °C using CM5 sensor chips (Cytiva) and HBS-P+ as running buffer (Cytiva) at a flow of 30 μL/min unless otherwise specified and a data collection rate of 10 Hz. All flow cells (FC) were normalized, and functionalization was performed using an amine coupling Kit (Cytiva). […] Binding analyses were performed by a single-cycle kinetic on both FC. Two start-up cycles were performed at the beginning of each experimental set, comprising the injection of bicyclic peptide (50 nM) and analysis on both FC, followed by regeneration. Binding analysis for the bicyclic peptides was performed by consecutive injection of five increasing concentrations (120 s contact time for each concentration), followed by 600 s dissociation time and analysis on both FC. The regeneration was performed by sequential injection of 10 mM NaOAc (pH 5.5) for 60 s, washing the needle using HBS-P+, injection of 10 mM NaOAc (pH 5.5) for 60 s, 600 s waiting, four injections of HBS-P+ (60 s), and a final 600 s waiting for stabilization. Blank runs using only buffer (HBS-P+) instead of the sample were carried out to obtain double-referenced chromatograms. Binding analyses were performed unless otherwise stated in a concentration range between 0.16–100 nM and 1.6–1000 nM (5-fold dilution series) and analyzed in triplicate. The data were analyzed using the Biacore Evaluation software 3.2.1. […] Data were fitted to a 1:1 binding model.
# HT-1376 cells = assay: Saturation binding assay on intact cells; assay type: cell-based, human; settings: ^68Ga-labeled ligand, intact HT-1376 cells, ±SD
# Method: For the saturation binding assay, total and nonspecific binding were determined as described above using 10 different radioligand concentrations ([…]) prepared by serial 1:1 dilution. Plots of “total binding” = f(radioligand) were analyzed by nonlinear regressions using the model of “one site-total, accounting for ligand depletion” as implemented in GraphPad Prism, and Plots of “nonspecific binding” = f(radioligand) were analyzed by linear regressions.
# [2] = target: T2, recombinant human nectin-4 (Homo sapiens, UniProt Q96NY8); assay: FA-based competitive binding assay with probe 1a; settings: for Hill coefficient n: competitive binding curve, variable slope
# T2 construct: close to the value determined for the complete extracellular domain of nectin-4 (0.94 nM); purchased R&D Systems 2659-N4
# T2 sequence (Q96NY8 32-349 limits assumed): T1 sequence (Q96NY8 32-349 limits assumed)
# Method: For the competitive binding assay, a constant concentration of probe 1a (1 nM) and of nectin-4 (20 nM) was used, and the concentration of the competitors was varied over at least 3 orders of magnitude. […] Analysis of the curves by nonlinear regression according to dose–response inhibition with variable slope, as implemented in GraphPad Prism (see Experimental section), provided the IC50 value for displacing the probe from nectin-4.
# All measurements were conducted at 37 °C over 1200 s (interval of 37 s) using a Cytation 5 multimode microplate reader (BioTek Instruments, Software Gen 5) and black 96-well microplates (BRANDplates with F-bottom wells). Experiments were conducted at an excitation wavelength of 540 nm and an emission wavelength of 620 nm. The FA (r) was calculated by Gen 5 software from the measured parallel and perpendicular fluorescence intensities (I ∥ and I ⊥, respectively) according to eq using a G factor of 0.87 (preset value). r=I∥−G×I⊥/I∥+2G×I⊥ 1
# All further data analyses were conducted with GraphPad Prism (version 10.4.1, GraphPad Software, San Diego, CA, USA). The assay mixture (100 μL) contained an aqueous solution (99 μL) and DMSO (1%, v/v, 1 μL).
# For the competitive binding assay, fixed concentrations of probe 1a (1 nM) and recombinant human nectin-4 (20 nM) and 10 concentrations of nonlabeled peptide (e.g., […] prepared as serial 1:1 dilution) were used (two separate experiments, each performed in duplicate). The corresponding stock solutions of 1a (2.5 nM) and nectin-4 (50 nM) were prepared in HEPES buffer, while the stock solutions of the nonlabeled peptides were prepared in 5% DMSO/HEPES buffer. nectin-4 (40 μL) and 1a (40 μL) were added to the wells, and the competition was started by the addition of the nonlabeled peptides (20 μL). The FA values were averaged over the time period of 1200 s, and plots of FA = f([peptide]) were analyzed by nonlinear regression according to the model “[inhibitor] vs. response – Variable slope (four parameters)” as implemented in GraphPad Prism. […] Therefore, the lower FA plateau was constrained to the FA value of probe 1a in the absence of nectin-4 and the competitor, which was recorded in each experiment.
# [3] = n-Octanol/PBS distribution coefficient (logD 7.4); assay type: physicochemical
# Method: The determination of logD 7.4 was performed in triplicate. A sample of the ^64Cu/^68Ga-labeled compound containing ≈1 MBq in a volume of 1 μL was added to a 1.5 mL Eppendorf tube containing 400 μL of PBS (pH 7.4) and 400 μL of n-Octanol (the phases were presaturated with each other). The tube was vortexed vigorously for 1 min and then centrifuged at 16,100g for 4 min to separate the phases. For sampling from the aqueous phase, the pipette tip was discharged while passing through the octanol layer. Then, the sample was taken within the aqueous phase. Any residual liquid was carefully removed by moving the tip along the inner wall of an Eppendorf tube. The radioactivity in a defined volume of each layer was measured (ISOMED 2100). The distribution coefficient was expressed as the logarithm of the ratio of counts per minute (cpm) measured in the n-Octanol phase to the cpm measured in the PBS phase.
# [4] = Small animal PET/CT imaging; set-up: species or system mice; settings: mouse, in vivo
# Method: (§1) All animal experiments were performed following the protocols evaluated and approved by the Landesdirektion Sachsen, Referat 25 – Veterinärwesen, Lebensmittelüberwachung and Pharmazie (09105 Chemnitz, Germany, ethics approval number: 25-5131/562/52). HT-1376- and 5637-derived tumor xenograft models were established in NMRI nude mice (Rj: NMRI-Foxn1nu/nu, Charles River Laboratories, Sulzfeld, Germany) by subcutaneous injection of 5 × 10^6 cells in 100 μL of PBS containing 50% (v/v) Matrigel (Corning Life Sciences, Amsterdam, The Netherlands).
# (§2) When the tumor volume reached 200 mm^3, PET experiments with radiotracers were performed. Radiolabeling of the ligands was performed as described previously with an apparent molar activity of 25 MBq/nmol. The radioligand stock solution (pH 6.5 – 7.5) was diluted in 0.9% NaCl, and 200 μL containing ∼9 MBq ([…]) was injected per mouse intravenously into a lateral tail vein. For blocking of target-specific radioligand binding, 75 nmol of blocking substance (1d) was administered simultaneously with the radioligand. Coincidences were recorded continuously in a 2 h PET-scan starting with the injection. Additionally, a CT scan was performed for anatomical referencing and attenuation correction. PET/CT imaging, reconstruction, and tissue delineation were carried out as described previously.
# [5] = system: HT-1376-derived tumor xenograft model; assay: Small animal PET/CT imaging; set-up: species or system mice; settings: mouse, in vivo
# Method: as §1, §2
# [6] = Oxidation stability in H2O2 (radio-HPLC)
# Method: To avoid a too rapid degradation of radiolabeled peptides, a low H2O2 concentration of 0.0012% was chosen. […] In this context, there are three further thioether functionalities in each peptide due to the cyclization of the Cys residues with TATA. In Figure , the curves for the time-dependent degradation of the intact radioligands are depicted, from which the respective half-lives were calculated.
# The stability toward oxidizing conditions was assessed with H2O2. For this purpose, the radioligands (2 nmol, 48 μL of labeling mixture) were treated with H2O2 (2 μL of 0.03%, final concentration of 0.0012%) at ambient temperature. At distinct time points (3, 5, and 7 h), an aliquot of 2 μL was withdrawn and diluted with 48 μL of a mixture named “Supersol,” which consists of 20% ethanol, 0.5% Triton X-100, 5 mM EDTA, 0.5 mM o-phenanthroline, and 0.1% saponin. […] The resulting solutions were analyzed by radio-HPLC (same system as that used for analyzing the ^64Cu-labelings).
SMILES,fold lower binding affinity compared to 1e ([2]; FA K d ratio) [fold],Hill coefficient n [2],"logD ([3]; pH 7.4, logD 7.4)",half-life ([4]; Blood half life fast [min]) [min],half-life ([4]; Blood half life slow [min]) [min],half-life [6] [min],further results
CSCC[C@@H]1NC(=O)[C@@H]2CSCCC(=O)N3CN(CN(C3)C(=O)CCSC[C@H](NC(=O)CN3CCN(CC(=O)O)CCN(CC(=O)O)CCN(CC(=O)O)CC3)C(=O)N3CCC[C@H]3C(=O)N[C@@H](Cc3ccc4ccccc4c3)C(=O)N[C@H](CC(=O)O)C(=O)N2)C(=O)CCSC[C@@H](C(N)=O)NC(=O)[C@H](Cc2c[nH]c3ccccc23)NC(=O)[C@@H]2C[C@@H](O)CN2C(=O)[C@@H]2CCCN2C(=O)[C@H]([C@@H](C)O)NC(=O)[C@H](CO)NC(=O)[C@H](Cc2c[nH]c3ccccc23)NC(=O)[C@H](CC(=O)O)NC(=O)[C@H](CCCNC(=N)N)NC1=O [8c] ({DOTA}-CP[2Nal][dD]CMRDWSTP[Hyp]WC-NH2; linker 1-5-15 via TATA),213,1.23,-2.79,–,–,–,"kon ([1]; HBS-P+ pH 7.4, 25 °C, read-out: k on (SPR, *10^6 M^–1 s^–1)): 20000 M⁻¹ s⁻¹; koff ([1]; pH 7.4, HBS-P+ pH 7.4, 25 °C, read-out: k off (SPR, *10^–3 s^–1)): 0.00239 s⁻¹; Kd (HT-1376 cells; 60 min, PBS wash, apparent): 103 nM; B max (fmol/mg) (HT-1376 cells): 799 (±136) fmol/mg; factor less potent than DOTA conjugate 1f ([2]; FA K d ratio): 21 fold"
"CCCC[C@@H]1NC(=O)[C@@H]2CSCCC(=O)N3CN(CN(C3)C(=O)CCSC[C@H](NC(=O)CC[C@H](C(=O)O)N3CCN(CC(=O)O)CCN(CC(=O)O)CC3)C(=O)N3CCC[C@H]3C(=O)N[C@@H](Cc3cccc4ccccc34)C(=O)N[C@H](CC(=O)O)C(=O)N2)C(=O)CCSC[C@@H](C(N)=O)NC(=O)[C@H](Cc2c[nH]c3ccccc23)NC(=O)[C@@H]2C[C@@H](O)CN2C(=O)[C@@H]2CCCN2C(=O)[C@H]([C@@H](C)O)NC(=O)[C@H](CO)NC(=O)[C@H](Cc2c[nH]c3ccccc23)NC(=O)[C@H](CC(=O)O)NC(=O)[C@H](CCCCNC(=N)N)NC1=O [[^64Cu]Cu-3a, metal not drawn] (X1-CP[1Nal][dD]C[Nle][hArg]DWSTP[Hyp]WC-NH2; linker 1-5-15 via TATA)",–,–,-2.53,1.24 ± 0.15,38.2 ± 2.68,1040,Percent fast [%] [5]: 85.43 ±1.50%; body retention at 2 h p.i. [5]: 70%; kidney uptake (SUVmean) at 2 h p.i. [5]: 25; time of highest tumor uptake [5]: ≈ 6 min
C[C@@H](O)[C@@H]1NC(=O)[C@H](CO)NC(=O)[C@H](Cc2c[nH]c3ccccc23)NC(=O)[C@H](CC(=O)O)NC(=O)[C@H](CCCCNC(=N)N)NC(=O)[C@H](CC[S+](C)[O-])NC(=O)[C@@H]2CSCCC(=O)N3CN(CN(C3)C(=O)CCSC[C@H](NC(=O)CC[C@H](C(=O)O)N3CCN(CC(=O)O)CCN(CC(=O)O)CC3)C(=O)N3CCC[C@H]3C(=O)N[C@@H](Cc3cccc4ccccc34)C(=O)N[C@H](CC(=O)O)C(=O)N2)C(=O)CCSC[C@@H](C(N)=O)NC(=O)[C@H](Cc2c[nH]c3ccccc23)NC(=O)[C@@H]2C[C@@H](O)CN2C(=O)[C@@H]2CCCN2C1=O (some centres unmarked) [compound 2] (X1-CP[1Nal][dD]C[Met(O)][hArg]DWSTP[Hyp]WC-NH2; linker 1-5-15 via TATA),34,1.07,-2.51,–,–,–,–
"C[Se]CC[C@@H]1NC(=O)[C@@H]2CSCCC(=O)N3CN(CN(C3)C(=O)CCSC[C@H](NC(=O)CC[C@H](C(=O)O)N3CCN(CC(=O)O)CCN(CC(=O)O)CC3)C(=O)N3CCC[C@H]3C(=O)N[C@@H](Cc3cccc4ccccc34)C(=O)N[C@H](CC(=O)O)C(=O)N2)C(=O)CCSC[C@@H](C(N)=O)NC(=O)[C@H](Cc2c[nH]c3ccccc23)NC(=O)[C@@H]2C[C@@H](O)CN2C(=O)[C@@H]2CCCN2C(=O)[C@H]([C@@H](C)O)NC(=O)[C@H](CO)NC(=O)[C@H](Cc2c[nH]c3ccccc23)NC(=O)[C@H](CC(=O)O)NC(=O)[C@H](CCCCNC(=N)N)NC1=O [[^64Cu]Cu-5, metal not drawn] (X1-CP[1Nal][dD]C[SeMet][hArg]DWSTP[Hyp]WC-NH2; linker 1-5-15 via TATA)",–,–,–,–,–,–,"half-life ([6]; half-life of intact radiolabeled peptide (T1/2), 0.0012% H2O2, 25 °C, one-phase decay): 22.8 min; half-life ([6]; half-life of intact radiolabeled peptide, 0.0012% H2O2): 23 min; logD ([3]; ^64Cu-labeled ligand, n-octanol/PBS pH 7.4, ±SD, read-out: logD 7.4): -2.37"
"CSCC[C@@H]1NC(=O)[C@@H]2CSCCC(=O)N3CN(CN(C3)C(=O)CCSC[C@H](NC(=O)CC[C@H](C(=O)O)N3CCN(CC(=O)O)CCN(CC(=O)O)CC3)C(=O)N3CCC[C@H]3C(=O)N[C@@H](Cc3cccc4ccccc34)C(=O)N[C@H](CC(=O)O)C(=O)N2)C(=O)CCSC[C@@H](C(N)=O)NC(=O)[C@H](Cc2c[nH]c3ccccc23)NC(=O)[C@@H]2C[C@@H](O)CN2C(=O)[C@@H]2CCCN2C(=O)[C@H]([C@@H](C)O)NC(=O)[C@H](CO)NC(=O)[C@H](Cc2c[nH]c3ccccc23)NC(=O)[C@H](CC(=O)O)NC(=O)[C@H](CCCCNC(=N)N)NC1=O [[^64Cu]Cu-1e, metal not drawn]",–,–,-2.74,1.21 ± 0.21,32.5 ± 3.08,218,–

# From paper PMC12557367, ““Precision on Two Wheels”–Structural Refinement of ^64Cu- and ^68Ga-Labeled Bicyclic Peptides Targeting Nectin‑4 for Improved Tumor Imaging: From Preclinical Development to First-in-Human Application” (Journal of Medicinal Chemistry, 2025)
